Measurements: publication PMC5403252 (Pharmacology, biochemistry, and behavior, 2016)
Structures can show the parent of a compound that is named as a salt. Where two headings read alike, the source gives them in different places.

Key:
Sprague–Dawley rats [1] = test: Acoustic startle: startle magnitude; type: in vivo, rat
Sprague–Dawley rats [2] = test: Prepulse inhibition; type: in vivo, rat
Sprague–Dawley rats [3] = test: Behavioral Pattern Monitor locomotor activity; type: in vivo, rat; conditions: 5-MeO-DMT 1 mg/kg SC, clorgyline 0.3 mg/kg pretreatment; fifth 10-min time block, p<0.05
[4] = 5-MeO-DMT and bufotenine levels in plasma by LC-ESI-SRM-MS/MS; type: in vivo, rat; conditions: for AUC / Cmax: rat, plasma, sc, 1 mg/kg, 1 mg/kg SC; for AUC: plasma AUC20→70 min for 5-MeO-DMT, trapezoidal rule; for Cmax: plasma Cmax of 5-MeO-DMT
[5] = 5-MeO-DMT and bufotenine levels in whole brain by LC-ESI-SRM-MS/MS; type: in vivo, rat; conditions: for Cmax: rat, whole brain, sc, 1 mg/kg, Cmax of 5-MeO-DMT in whole brain
5-HT2A [6] = conditions: rats; ref Bedard and Pycock 1977; Matthews and Smith 1980; cited from earlier work
5-HT2A [7] = conditions: cited from earlier work
5-HT uptake = conditions: ref Berge et al. 1983; Chang et al. 1993; Nagai et al. 2007; cited from earlier work
[8] = 10 mg/kg IP; ref Sitaram et al. 1987; cited from earlier work
[9] = after SC administration of 1 mg/kg
[10] = clorgyline 0.3 mg/kg pretreatment

**Q.** With `C#CCN(C)Cc1ccccc1` [Pargyline, pargyline HCl] as the compound, how does the “Startle magnitude (mean±SEM)” value (Sprague–Dawley rats [1]; pargyline 10 mg/kg SC pretreatment, vehicle treatment, experiment 1, n=10) read?
**A.** 167.66±22.30

**Q.** And the “Effect on PPI” value (Sprague–Dawley rats [2]; pargyline 10 mg/kg alone compared with vehicle pretreatment)?
**A.** did not significantly reduce PPI

**Q.** Which “Startle magnitude (mean±SEM)” value (Sprague–Dawley rats [1]; WAY-100635 1.0 mg/kg SC pretreatment, vehicle treatment, experiment 3, n=10) does the source give for `COc1ccccc1N1CCN(CCN(C(=O)C2CCCCC2)c2ccccn2)CC1.O=C(O)/C=C\C(=O)O` [WAY-100635, N-[2-[4-(2-methoxyphenyl)-1-piperazinyl]ethyl]-N-2-pyridinylcyclohexanecarboxamide maleate] here?
**A.** 271.30±51.26

**Q.** And the “Startle magnitude (mean±SEM)” value (Sprague–Dawley rats [1]; WAY-100635 1.0 mg/kg pretreatment, pargyline 10 + 5-MeO-DMT 1.0 mg/kg, experiment 3, n=10)?
**A.** 172.03±47.00

**Q.** And the “Effect of pretreatment on reduction of PPI produced by 10 mg/kg pargyline and 1 mg/kg 5-MeO-DMT” value (Sprague–Dawley rats [2]; WAY-100,635 1 mg/kg pretreatment, p<0.01, Tukey's test)?
**A.** significantly antagonized

**Q.** For `C#CCN(C)CCCOc1ccc(Cl)cc1Cl.Cl` [Clorgyline, N-methyl-N-propargyl-3-(2,4-dichlorophenoxy)-propylamine HCl], which “Startle magnitude (mean±SEM)” value (Sprague–Dawley rats [1]; clorgyline 0.3 mg/kg SC pretreatment, vehicle treatment, experiment 2, n=12) is on record?
**A.** 422.31±78.47

**Q.** What does the source list for `OC(c1ccccc1)C1CCN(CCc2ccccc2)CC1` (stereo not drawn) [MDL 11,939, α-Phenyl-1-(2-phenylethyl)-4-piperidinemethanol]?
**A.** Startle magnitude (mean±SEM) (Sprague–Dawley rats [1]; MDL 11,939 0.3 mg/kg pretreatment, pargyline 10 + 5-MeO-DMT 1.0 mg/kg, experiment 3, n=10): 419.79±48.30; Effect of pretreatment on ability of pargyline and 5-MeO-DMT to reduce PPI (Sprague–Dawley rats [2]; MDL 11,939 0.3 mg/kg pretreatment, p<0.01, Tukey's test): significantly attenuated

**Q.** What does the source list for `COc1ccc2[nH]cc(CCN(C)C)c2c1` [5-MeO-DMT, 5-Methoxy-N,N-dimethyltryptamine]?
**A.** Startle magnitude (mean±SEM) (Sprague–Dawley rats [1]; clorgyline 0.3 mg/kg pretreatment, 5-MeO-DMT 1.0 mg/kg SC, 45 min, experiment 2, n=12): 544.45±62.88; Startle magnitude (mean±SEM) (Sprague–Dawley rats [1]; vehicle pretreatment, 5-MeO-DMT 0.1 mg/kg SC, tested 45 min post-injection, experiment 1, n=10): 180.58±37.92; Startle magnitude (mean±SEM) (Sprague–Dawley rats [1]; vehicle pretreatment, 5-MeO-DMT 1.0 mg/kg SC, 45 min, experiment 1, n=10): 274.12±56.96; Effect on PPI (Sprague–Dawley rats [2]; 5-MeO-DMT 1.0 mg/kg SC in animals pretreated with clorgyline 0.3 mg/kg, 45 min, all three prepulse intensities, p<0.01): significantly reduced PPI; Effect on PPI (Sprague–Dawley rats [2]; 5-MeO-DMT 1 mg/kg SC in animals pretreated with pargyline 10 mg/kg, 45 min, all three prepulse intensities, p<0.01): significantly reduced PPI; Effect on PPI (Sprague–Dawley rats [2]; 5-MeO-DMT 1.0 mg/kg SC, saline-pretreated animals, 45 min, experiment 2): did not alter PPI; Effect on PPI (Sprague–Dawley rats [2]; 5-MeO-DMT 0.1 or 1.0 mg/kg SC, saline-pretreated animals, tested 45 min post-injection, experiment 1): did not alter PPI; Crossings (locomotor activity) versus vehicle pretreatment (Sprague–Dawley rats [3]): significantly more crossings; time at which level of 5-MeO-DMT in plasma peaked [4, 9]: ≤ 20 min; AUC [4, 10]: 31.4 ± 2.3 ng·h/mL; AUC ([4]; vehicle pretreatment): 12.2 ± 1.7 ng·h/mL; Cmax [4, 10]: 78.1 ± 9.5 ng/mL; Cmax ([4]; vehicle pretreatment): 52.7 ± 11.8 ng/mL; peak level of 5-MeO-DMT in the brain ([5]; 1 mg/kg SC, no MAO inhibitor): 144.3 nM; time at which level of 5-MeO-DMT in brain peaked [5, 9]: ≤ 20 min; Cmax ([5]; 1 mg/kg SC, clorgyline 0.3 mg/kg pretreatment): 634 ± 146 ng/g; Cmax ([5]; 1 mg/kg SC, vehicle pretreatment): 30.3 ± 11.2 ng/g; doses eliciting the head twitch response (HTR) (5-HT2A [6]): 0.2 to 1 mg/kg; concentration of 5-MeO-DMT required to activate 5-HT2A (5-HT2A [7]; ref Blair et al. 2000, Parrish and Nichols 2006): low micromolar range; concentration of 5-MeO-DMT required to activate 5-HT2A (5-HT2A [7]; ref Newton et al. 1996, Rabin et al. 2002, Kurrasch-Orbaugh et al. 2003, Strachan et al. 2010): several hundred nanomolar; concentrations inhibiting 5-HT uptake (5-HT uptake): low micromolar concentrations; increase of 5-MeO-DMT blood levels by iproniazid [8]: 40 fold; increase of 5-MeO-DMT brain levels by iproniazid [8]: ~100 fold
